The kinase profiling compilation of Christmann-Franck et al. (2016)

Experiments:
Test in all cases: radiometric filter-binding kinase assay, Kinaseprofiler
SIK1 (human) = SIK1 (human) (UniProt P57059); conditions: ATP 45 µM
KDR (human) = KDR (human) (UniProt P35968); conditions: ATP 90 µM
TXK (human) = TXK (human) (UniProt P42681); conditions: ATP 200 µM
DMPK (human) = DMPK (human) (UniProt Q09013); conditions: ATP 10 µM
[1] = target: PRKAA1 PRKAB1 PRKAG1 (human) (UniProt P54619+Q13131+Q9Y478); conditions: ATP 45 µM
PRKAA1 PRKAB1 PRKAG1 (human), sequence (P54619 whole entry, looked up): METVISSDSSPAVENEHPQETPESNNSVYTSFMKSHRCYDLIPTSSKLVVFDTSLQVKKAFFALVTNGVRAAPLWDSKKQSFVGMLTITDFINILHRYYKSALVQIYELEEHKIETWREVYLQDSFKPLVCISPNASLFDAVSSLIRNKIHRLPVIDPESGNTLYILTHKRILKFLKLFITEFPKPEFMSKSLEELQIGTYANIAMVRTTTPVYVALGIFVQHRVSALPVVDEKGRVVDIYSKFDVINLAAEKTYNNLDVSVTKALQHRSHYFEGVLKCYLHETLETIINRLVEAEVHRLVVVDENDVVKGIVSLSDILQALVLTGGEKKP
PRKAA1 PRKAB1 PRKAG1 (human), sequence (Q13131 whole entry, looked up): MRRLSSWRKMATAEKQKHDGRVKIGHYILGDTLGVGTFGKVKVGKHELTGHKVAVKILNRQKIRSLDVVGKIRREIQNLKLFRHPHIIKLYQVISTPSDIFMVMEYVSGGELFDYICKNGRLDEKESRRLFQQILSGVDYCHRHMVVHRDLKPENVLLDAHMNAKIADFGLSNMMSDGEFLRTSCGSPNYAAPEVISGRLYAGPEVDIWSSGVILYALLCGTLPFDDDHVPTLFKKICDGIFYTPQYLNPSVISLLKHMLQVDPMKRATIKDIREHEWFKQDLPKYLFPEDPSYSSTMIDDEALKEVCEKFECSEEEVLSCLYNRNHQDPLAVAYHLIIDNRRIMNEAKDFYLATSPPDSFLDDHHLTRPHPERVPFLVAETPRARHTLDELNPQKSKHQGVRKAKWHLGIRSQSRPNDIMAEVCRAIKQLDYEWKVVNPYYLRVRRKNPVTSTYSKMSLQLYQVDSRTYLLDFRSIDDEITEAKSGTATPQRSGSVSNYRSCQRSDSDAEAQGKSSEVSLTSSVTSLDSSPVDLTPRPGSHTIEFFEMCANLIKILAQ
PRKAA1 PRKAB1 PRKAG1 (human), sequence (Q9Y478 whole entry, looked up): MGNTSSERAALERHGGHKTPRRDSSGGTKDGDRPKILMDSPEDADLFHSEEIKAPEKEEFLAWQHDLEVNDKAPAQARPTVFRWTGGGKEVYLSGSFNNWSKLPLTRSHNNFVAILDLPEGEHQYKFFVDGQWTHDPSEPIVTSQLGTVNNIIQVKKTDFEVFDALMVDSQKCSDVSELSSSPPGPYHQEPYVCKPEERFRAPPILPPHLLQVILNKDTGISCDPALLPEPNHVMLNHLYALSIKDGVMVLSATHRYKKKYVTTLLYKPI

KDR (human), sequence (P35968 whole entry, looked up): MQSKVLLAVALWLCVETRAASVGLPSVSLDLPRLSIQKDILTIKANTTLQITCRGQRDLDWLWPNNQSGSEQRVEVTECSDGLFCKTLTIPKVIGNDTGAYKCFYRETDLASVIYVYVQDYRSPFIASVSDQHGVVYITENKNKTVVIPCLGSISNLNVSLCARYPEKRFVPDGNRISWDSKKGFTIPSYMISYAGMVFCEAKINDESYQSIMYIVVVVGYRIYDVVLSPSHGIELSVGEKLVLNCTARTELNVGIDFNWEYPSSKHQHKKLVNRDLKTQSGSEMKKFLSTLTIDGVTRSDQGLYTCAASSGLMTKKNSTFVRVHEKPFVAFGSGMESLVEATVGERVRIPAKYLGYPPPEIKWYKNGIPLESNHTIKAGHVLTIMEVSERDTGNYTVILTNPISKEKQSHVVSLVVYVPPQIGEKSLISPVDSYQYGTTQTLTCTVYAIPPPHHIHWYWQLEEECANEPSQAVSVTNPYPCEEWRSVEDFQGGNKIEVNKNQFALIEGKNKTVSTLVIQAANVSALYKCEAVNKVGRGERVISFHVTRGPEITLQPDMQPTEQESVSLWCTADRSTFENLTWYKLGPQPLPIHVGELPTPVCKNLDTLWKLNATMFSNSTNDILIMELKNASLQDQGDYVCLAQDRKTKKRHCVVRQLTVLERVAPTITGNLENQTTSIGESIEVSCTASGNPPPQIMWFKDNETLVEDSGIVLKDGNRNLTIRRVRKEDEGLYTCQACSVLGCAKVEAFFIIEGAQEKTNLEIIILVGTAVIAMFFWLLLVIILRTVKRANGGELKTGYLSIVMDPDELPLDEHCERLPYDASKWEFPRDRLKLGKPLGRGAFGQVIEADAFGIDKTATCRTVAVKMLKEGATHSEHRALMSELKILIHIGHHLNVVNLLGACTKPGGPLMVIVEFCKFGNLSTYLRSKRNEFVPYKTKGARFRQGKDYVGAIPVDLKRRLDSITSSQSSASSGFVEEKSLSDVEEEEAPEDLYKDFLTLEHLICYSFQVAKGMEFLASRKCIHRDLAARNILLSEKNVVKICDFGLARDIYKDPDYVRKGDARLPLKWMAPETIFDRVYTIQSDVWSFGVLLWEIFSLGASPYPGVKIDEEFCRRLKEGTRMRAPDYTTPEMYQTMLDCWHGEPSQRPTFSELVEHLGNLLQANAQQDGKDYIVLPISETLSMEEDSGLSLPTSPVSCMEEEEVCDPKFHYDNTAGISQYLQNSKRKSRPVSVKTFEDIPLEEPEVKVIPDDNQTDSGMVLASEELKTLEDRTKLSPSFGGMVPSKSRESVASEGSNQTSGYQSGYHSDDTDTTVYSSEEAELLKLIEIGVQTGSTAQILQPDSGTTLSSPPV
SIK1 (human), sequence (P57059 whole entry, looked up): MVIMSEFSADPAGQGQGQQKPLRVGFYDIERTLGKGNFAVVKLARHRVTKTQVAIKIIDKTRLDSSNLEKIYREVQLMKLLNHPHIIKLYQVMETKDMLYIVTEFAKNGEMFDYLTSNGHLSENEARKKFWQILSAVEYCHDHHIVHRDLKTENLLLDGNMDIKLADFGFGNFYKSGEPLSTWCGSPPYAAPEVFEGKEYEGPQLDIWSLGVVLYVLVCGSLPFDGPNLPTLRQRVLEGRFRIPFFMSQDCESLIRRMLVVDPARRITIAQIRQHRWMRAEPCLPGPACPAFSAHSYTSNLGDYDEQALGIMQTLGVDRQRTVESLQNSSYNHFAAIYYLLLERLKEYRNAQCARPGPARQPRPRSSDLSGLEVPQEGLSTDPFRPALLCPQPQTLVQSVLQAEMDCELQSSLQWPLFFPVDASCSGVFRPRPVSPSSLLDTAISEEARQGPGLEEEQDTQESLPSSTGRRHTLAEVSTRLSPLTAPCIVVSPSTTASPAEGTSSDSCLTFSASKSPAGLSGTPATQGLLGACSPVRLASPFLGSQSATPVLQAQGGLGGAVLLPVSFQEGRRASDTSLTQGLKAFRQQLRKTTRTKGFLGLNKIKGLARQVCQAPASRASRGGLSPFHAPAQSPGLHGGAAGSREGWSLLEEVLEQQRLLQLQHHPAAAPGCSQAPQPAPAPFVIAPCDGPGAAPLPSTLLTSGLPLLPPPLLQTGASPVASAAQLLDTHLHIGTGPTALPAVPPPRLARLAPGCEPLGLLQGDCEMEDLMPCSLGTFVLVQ
DMPK (human), sequence (Q09013 whole entry, looked up): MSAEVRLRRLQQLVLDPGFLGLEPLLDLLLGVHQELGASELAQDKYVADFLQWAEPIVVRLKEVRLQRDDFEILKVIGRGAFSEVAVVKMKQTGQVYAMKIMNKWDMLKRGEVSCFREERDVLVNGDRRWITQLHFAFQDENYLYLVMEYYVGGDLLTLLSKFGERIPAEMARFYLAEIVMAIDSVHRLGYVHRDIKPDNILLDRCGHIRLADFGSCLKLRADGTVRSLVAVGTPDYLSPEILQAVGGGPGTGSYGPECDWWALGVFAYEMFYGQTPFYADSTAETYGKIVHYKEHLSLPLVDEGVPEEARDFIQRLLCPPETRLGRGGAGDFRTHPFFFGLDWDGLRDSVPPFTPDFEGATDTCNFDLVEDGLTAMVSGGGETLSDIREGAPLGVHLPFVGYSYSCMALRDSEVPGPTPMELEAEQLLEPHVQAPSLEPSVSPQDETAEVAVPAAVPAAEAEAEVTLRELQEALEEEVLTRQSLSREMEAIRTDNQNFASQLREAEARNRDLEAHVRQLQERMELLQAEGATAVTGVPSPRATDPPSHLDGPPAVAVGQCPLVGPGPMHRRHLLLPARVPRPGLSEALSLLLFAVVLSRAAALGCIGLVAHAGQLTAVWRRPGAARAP
TXK (human), sequence (P42681 whole entry, looked up): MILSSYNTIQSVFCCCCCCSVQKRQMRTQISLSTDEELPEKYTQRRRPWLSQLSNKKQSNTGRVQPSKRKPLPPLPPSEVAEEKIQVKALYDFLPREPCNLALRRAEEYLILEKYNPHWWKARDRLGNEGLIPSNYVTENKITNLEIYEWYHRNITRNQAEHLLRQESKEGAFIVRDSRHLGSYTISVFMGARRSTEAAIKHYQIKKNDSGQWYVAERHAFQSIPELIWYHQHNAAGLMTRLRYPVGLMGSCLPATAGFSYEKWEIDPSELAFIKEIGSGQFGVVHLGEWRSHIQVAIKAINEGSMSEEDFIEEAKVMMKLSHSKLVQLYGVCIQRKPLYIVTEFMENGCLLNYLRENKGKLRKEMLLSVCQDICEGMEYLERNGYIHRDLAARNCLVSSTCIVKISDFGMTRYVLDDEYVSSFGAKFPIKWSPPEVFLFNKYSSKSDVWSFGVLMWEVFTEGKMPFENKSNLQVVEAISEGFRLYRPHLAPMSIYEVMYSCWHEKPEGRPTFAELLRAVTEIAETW

O=C1Nc2ccccc2/C1=C1\Nc2ccccc2\C1=N/O was tested, and the residual activity (SIK1 (human); compound 1.0 µM) was 43%, the residual activity (SIK1 (human); compound 10.0 µM) was 8% and the residual activity (KDR (human); compound 1.0 µM) was 4%. For the same compound, the residual activity (KDR (human); compound 10.0 µM) was 1%, the residual activity (TXK (human); compound 1.0 µM) was 45% and the residual activity (TXK (human); compound 10.0 µM) was 11%. For the same compound, the residual activity (DMPK (human); compound 1.0 µM) was 109%, the residual activity (DMPK (human); compound 10.0 µM) was 83% and the residual activity ([1]; compound 1.0 µM) was 2%. For the same compound, the residual activity ([1]; compound 10.0 µM) was 0%.
